Values belong to the compound of their own block, whether it stands above or below them.
How the values were obtained:
SK3 channel = target: T1, SK3 channel (Rattus norvegicus, UniProt P70605); experiment: Conventional manual patch clamp on HEK-rSK3 cells, SK3 channel activity; format: cell-based; settings: for inhibition at 0.001 µM: 1 nM; for inhibition at 0.05 µM: 50 nM; for inhibition at 0.5 µM: 500 nM
T1 construct: expressed in transfected cells
Excerpt: (§1) Cell Lines Used to Screen the Molecules on the Activity of SKCa Channels (Small Conductance Calcium-Activated Potassium Channel; SK1, SK2 and SK3) and IKCa Channels (Intermediate Conductance Calcium-Activated Potassium Channel, SK4)
(§2) Use was made of the HEK 293 T line, a foetal kidney line which was immortalised with the T antigen of the […] simian virus. This cell line is widely used on account of the ease with which these cells can be transfected with plasmids or other transfection vectors. Four stable lines were used for patch clamp experiments: HEK-hSK1, HEK-rSK2, HEK-rSK3 and HEK-IKCa/SK4 which respectively overexpress the SK1, SK2, SK3 and SK4 channels. The lines were obtained via stable transduction (Girault et al., Current Cancer Drug Targets, 2011, 11, 1111-25) and are those already routinely used to assay SK3 modulators (Potier et al. Br J Pharmacol. 2011 January; 162(2):464-79; Sevrain et al., Med. Chem. Commun., 2012, 3, 1471-1478; Sevrain et al., Organic & Biomolecular Chemistry, 2013 Jul. 21; 11(27):4479-87, Berthe W, Sevrain C M, Chantôme A, Bouchet A M, Gueguinou M, Fourbon Y, Potier-Cartereau M, Haelters J P, Couthon-Gourvès H, Vandier C, Jaffrès P A. ChemMedChem. 2016 Jul. 19; 11(14):1531-9). […] These lines therefore enabled us without difficulty to examine the effect of the molecules on the SK3 channel, and also the selectivity thereof by means of the patch clamp technique. The inhibitory activity of the non-toxic molecules was assayed on the activity of the SK3 channel. The selectivity of the molecules was determined by patch clamp on HEK cell models stably expressing the SK3 channel but also the SK1, SK2, SK3 or IKCa/SK4 channels.
Electrophysiology/Patch-Clamp
(§3) Patch clamp is a technique allowing measurement of the activity of ion channels by recording macroscopic (whole cell configuration) or microscopic (e.g. inside out configuration) ionic currents through the plasma membrane. For assay of the effect of the molecules on the SKCa/IKCa channels, two complementary techniques were used: conventional, manual patch clamp and automated patch clamp with the Nanion NPC-16 Patchliner Quattro (4 channels) (Potier et al., Mol Cancer Ther 2006, 5, 2946-53; Chantome et al., Exp Cell Res 2009, 315, 3620-30; Potier et al., Biochem Biophys Res Commun 2010, 397, 42-7; Girault et al., Current Cancer Drug Targets, 2011, 11, 1111-25; Sevrain et al., Med. Chem. Commun., 2012, 3, 1471-1478; Sevrain et al., Organic & Biomolecular Chemistry, 2013 Jul. 21; 11(27):4479-87; Chantome et al., Cancer Research, 2013 Aug. 1; 73(15):4852-61, Gueguinou M, Crottès D, Chantôme A, Rapetti-Mauss R, Potier-Cartereau M, Clarysse L, Girault A, Fourbon Y, Jézéquel P, Guérin-Charbonnel C, Fromont G, Martin P, Pellissier B, Schiappa R, Chamorey E, Mignen O, Uguen A, Borgese F, Vandier C, Soriani O. Oncogene. 2017 Jan. 23. doi: 10.1038/onc.2016.501, Berthe W, Sevrain C M, Chantôme A, Bouchet A M, Gueguinou M, Fourbon Y, Potier-Cartereau M, Haelters J P, Couthon-Gourvès H, Vandier C, Jaffrès P A. ChemMedChem. 2016 Jul. 19; 11(14):1531-9, Guéguinou M, Harnois T, Crottes D, Uguen A, Deliot N, Gambade A, Chantôme A, Haelters J P, Jaffrès P A, Jourdan M L, Weber G, Soriani O, Bougnoux P, Mignen O, Bourmeyster N, Constantin B, Lecomte T, Vandier C, Potier-Cartereau M. Oncotarget. 2016 Jun. 14; 7(24):36168-36184. doi: 10.18632/oncotarget.8786).
For conventional patch clamp, the micropipette is filled with an intrapipette medium—IPM (see composition below) and allows measurement of ionic currents at the same time as allowing maintaining of membrane potential (voltage clamp). The experimental device was composed of an anti-vibration table supporting an inverted microscope (Nikon, Eclipse TE 300). The Petri dish (Corning Incorporated, USA), containing the cells was placed on a plexiglass plate attached to the microscope stage. The pipette was connected to the amplifier (Axopatch 200B) as reference electrode which allowed closing of the electrical circuit. […]

SK2 channel = target: T2, SK2 channel (Rattus norvegicus, UniProt P70604); experiment: Automated patch clamp (Nanion NPC-16 Patchliner Quattro) on HEK-rSK2 cells, SK2 channel activity; format: cell-based; settings: for inhibition at 0.001 µM: 1 nM; for inhibition at 0.01 µM: 10 nM
T2 construct: expressed in transfected cells
Excerpt: as §1, §2, §3
The technique of choice to determine molecules inhibiting the activity of ion channels is the patch-clamp technique. However, this technique which is manual is time-consuming and only gives low yields. Automation of patch-clamp brought a revolution in the study and screening of ion channels and has allowed the envisaging of assays with much faster flow rate and much higher yield. There exist several automatic patch clamp devices based on the use of chips. […]

[1] = system: MDA-MB-435s-Luc cells expressing the SK3 channel; experiment: In vivo mouse model of orthotopic xenograft: primary tumour and metastases; set-up: species or system female NMRI nude mice; settings: 1 mg/kg intraperitoneal, three times per week
Excerpt: In Vivo Mouse Model of Orthotopic Xenograft: Assay on Capacity of the Molecules to Reduce Tumour Development
This model allowed study on a metastatic cancer with development of the primary tumour and formation of metastases in parallel with primary tumour development. For this assay, female NMRI nude mice aged four weeks were used. To prepare the graft, the terminal end bud of the mice was cauterised with an electrical scalpel and 2 million cells expressing the SK3 channel and luciferase (MDA-MB-435s-Luc) implanted therein. Luciferase allows in vivo monitoring of tumour development via optical imaging (Girault et al., Current Cancer Drug Targets, 2011, 11, 1111-25; Chantome et al., Cancer Research, 2013 Aug. 1; 73(15):4852-61).
Two groups of mice were formed and compound 20 was prepared in a DMSO/PEG300/Water mixture (5:45:50) at 10 ml/kg: • Group 20 1: group treated via intraperitoneal injection of compound 20 at 1 mg/kg, three times per week for […]; and • Control group: group given injections with equivalent vehicle dilution […], three times per week for 15 weeks.
Development of the primary tumour was monitored in two manners: size measurement with a calliper rule (length×width×thickness) and measurement of bioluminescence with a bio-imaging device.
If the primary tumour reached a size of 900 mm^3, it was fully excised to best approach a clinical situation and exclude this variable which could impact the development of metastases. The experiment was continued with injections of compound 20 and monitoring of the development of metastases via BLI with front and back imaging of the mice.
The weight of the mice, bioluminescence and tumour size measurements were carried out every week to monitor tumour changes and metastases. For imaging, the mice were anaesthetised with isoflurane.
After about 15 weeks, the mice were sacrificed. Luciferin was injected before sacrifice to allow whole-animal imaging and imaging of each organ examined (bone, liver, lymph node, brain, colon).

SMILES: c1ccc2c(c1)CCCC2Nc1ncnc2cccnc12 (centres unmarked) [Compound 7, N-(1,2,3,4-Tetrahydronaphthalen-1-yl)pyrido[3,2-d]pyrimidin-4-amine]
inhibition at 0.001 µM (SK3 channel): 42.2% | % SK3 inhibition (SK3 channel; 10 nM): 10 nM: 56.1 ± 4.8 (N = 3) % | % SK3 inhibition (SK3 channel; 100 nM): 100 nM: 81.3 ± 1.0 (N = 3) % | % SK3 inhibition (SK3 channel; 10 μM): 10 μM: 83.4 ± 3.2 (N = 8) % | inhibition at 0.001 µM (SK2 channel): 35% | inhibition at 0.01 µM (SK2 channel): 89.3% | % SK2 inhibition (SK2 channel; 100 nM): 100 nM: 91.5 ± 1.6 (N = 9) % | % SK2 inhibition (SK2 channel; 10 μM): 10 μM: 95.6 ± 1.2 (N = 9) %

SMILES: c1ccc2c(c1)CCC[C@H]2Nc1ncnc2cccnc12 [Compound 18, (R)—N-(1,2,3,4-Tetrahydronaphthalen-1-yl)pyrido[3,2-d]pyrimidin-4-amine]
inhibition at 0.001 µM (SK3 channel): 44.7% | inhibition at 0.01 µM (SK3 channel; 10 nM): 59.7% | inhibition at 0.1 µM (SK3 channel; 100 nM): 96% | inhibition at 10 µM (SK3 channel; 10 μM): 89.9% | inhibition at 0.001 µM (SK2 channel): 36.7% | inhibition at 0.01 µM (SK2 channel): 81.4% | inhibition at 0.1 µM (SK2 channel; 100 nM): 92.9% | inhibition at 10 µM (SK2 channel; 10 μM): 97%

SMILES: c1ccc2c(c1)CCC[C@@H]2Nc1ncnc2cccnc12 [Compound 20, (S)—N-(1,2,3,4-Tetrahydronaphthalen-1-yl)pyrido[3,2-d]pyrimidin-4-amine]
inhibition at 0.01 µM (SK3 channel; 10 nM): 45.5% | inhibition at 10 µM (SK3 channel; 10 μM): 92.8% | inhibition at 0.1 µM (SK2 channel; 100 nM): 91.2% | inhibition at 10 µM (SK2 channel; 10 μM): 91.8% | toxicity in xenografted mice [1]: apparent non-toxicity | weight of the mice versus control group ([1]; at 10 weeks, xenografted mice): no significant difference in weight between the two groups | primary tumour volume versus control group ([1]; at the time of primary tumour excision): Tumour volume did not differ between groups | lung metastases ([1]; ex vivo after 15 weeks): developed lung metastases | bone metastases ([1]; ex vivo after 15 weeks, FIG. 1): reduced the number of bone metastases | ovarian and uterine metastases ([1]; ex vivo after 15 weeks, FIG. 2): fully stopped the development of ovarian and uterine metastases

SMILES: c1cnc2c(NC3CCCCC3)ncnc2c1 [Compound 23, N-Cyclohexylpyrido[3,2-d]pyrimidin-4-amine]
inhibition at 10 µM (SK3 channel; 10 μM): 8.4% | inhibition at 10 µM (SK2 channel; 10 μM): 1%

SMILES: c1ccc2c3c(ccc2c1)CCCC3Nc1ncnc2cccnc12 (centres unmarked) [Compound 29, N-(1,2,3,4-Tetrahydrophenanthren-4-yl)pyrido[3,2-d]pyrimidin-4-amine]
inhibition at 10 µM (SK3 channel; 10 μM): 46% | inhibition at 10 µM (SK2 channel; 10 μM): 16.2%

Further lines, results first:

inhibition at 0.05 µM (SK3 channel): 35.5% | inhibition at 0.5 µM (SK3 channel): 52.9% | inhibition at 10 µM (SK3 channel; 10 μM): 87.2% | inhibition at 10 µM (SK2 channel; 10 μM): 95%
SMILES: Cc1nc(NC2CCCc3ccccc32)c2ncccc2n1 (centres unmarked) [Compound 30, 2-Methyl-N-(1,2,3,4-tetrahydronaphthalen-1-yl)pyrido[3,2-d]pyrimidin-4-amine]

inhibition at 0.05 µM (SK3 channel): 32.9% | inhibition at 0.5 µM (SK3 channel): 40.4% | inhibition at 0.1 µM (SK2 channel; 100 nM): 92.7% | inhibition at 10 µM (SK2 channel; 10 μM): 94.8%
SMILES: Oc1nc(NC2CCCc3ccccc32)c2ncccc2n1 (centres unmarked) [Compound 34, 4-(1,2,3,4-tetrahydronaphthalen-1-ylamino)pyrido[3,2-d]pyrimidin-2-ol]

inhibition at 0.1 µM (SK2 channel; 100 nM): 83.7% | inhibition at 10 µM (SK2 channel; 10 μM): 91.4%
SMILES: CNc1nc(NC2CCCc3ccccc32)c2ncccc2n1 (centres unmarked) [Compound 35, N^2-methyl-N^4-(1,2,3,4-tetrahydronaphthalen-1-yl)pyrido[3,2-d]pyrimidine-2,4-diamine]

inhibition at 0.1 µM (SK3 channel; 100 nM): 11.9% | inhibition at 10 µM (SK3 channel; 10 μM): 82.2% | inhibition at 0.1 µM (SK2 channel; 100 nM): 25.6% | inhibition at 10 µM (SK2 channel; 10 μM): 88.1%
SMILES: CCCCCCc1cnc2c(NC3CCCc4ccccc43)ncnc2c1 (centres unmarked) [Compound 40, 7-Hexyl-N-(1,2,3,4-tetrahydronaphthalen-1-yl)pyrido[3,2-d]pyrimidin-4-amine]

inhibition at 0.001 µM (SK3 channel): 7.4% | inhibition at 0.01 µM (SK3 channel; 10 nM): 42.6% | inhibition at 0.05 µM (SK3 channel): 29.2% | inhibition at 0.1 µM (SK3 channel; 100 nM): 41.9% | inhibition at 0.5 µM (SK3 channel): 94.2% | inhibition at 10 µM (SK3 channel; 10 μM): 62.2% | inhibition at 0.05 µM (SK2 channel; 50 nM): 29.2% | inhibition at 0.1 µM (SK2 channel; 100 nM): 41.9% | inhibition at 0.5 µM (SK2 channel; 500 nM): 43.2% | inhibition at 10 µM (SK2 channel; 10 μM): 62.2%
SMILES: c1ccc2c(c1)CCCN2Nc1ncnc2cccnc12 [Compound 53, N-(3,4-Dihydroquinolin-1(2H)-yl)pyrido[3,2-d]pyrimidin-4-amine]

% SK3 inhibition (SK3 channel; 10 nM): 10 nM: 92.43 ± 0.78 (N = 2) % | inhibition at 0.1 µM (SK3 channel; 100 nM): 85.4% | inhibition at 10 µM (SK3 channel; 10 μM): 88.8% | inhibition at 0.1 µM (SK2 channel; 100 nM): 80% | inhibition at 10 µM (SK2 channel; 10 μM): 93.3%
SMILES: Cl.c1ccc2c(c1)CCCC2Nc1ncnc2cccnc12 (centres unmarked) [Compound 75, N-Tetralin-1-ylpyrido[3,2-d]pyrimidin-3-ium-4-amine chloride]
